Data taken from patent publication US20130184272A1, “DIABETES THERAPEUTIC AGENT” (TAKEDA PHARMACEUTICAL COMPANY LIMITED, priority 2010, published 2013).
Marks after values point to notes of the source that are not given here.

Assays:
PPARγ = experiment: Adipocyte-related gene expression level: PPARγ; format: cell-based
Protocol: In the same manner as in Example 10, the cells were cultured, and total RNA was extracted using Rneasy96 kit (Qiagen) from the cell immediately before and 6 days after addition of […] of the compound of Reference Example 1. cDNA was prepared from the total RNA using TaqMan reverse transcription reagent (Applied Biosystems), quantitative PCR was performed by ABI PRISM7000 or 7000 using TaqMan Universal PCR master mix (Applied Biosystems) and commercially available primers, and the expression level of each gene was determined. The commercially available primers used were as follows. • C/EBPα (Mm00514283_s1, TaqMan Gene Expression Assays, Applied Biosystems) • C/EBPβ (Mm00843434_s1, TaqMan Gene Expression Assays, Applied Biosystems) • KLF15 (Mm00517792_m1, TaqMan Gene Expression Assays, Applied Biosystems) • PPARγ (Mm00440945_m1, TaqMan Gene Expression Assays, Applied Biosystems)
The expression level was amended by the amount of 36B4 (Takeda Pharmaceutical Company Limited) in the same manner as in Example 3, and the relative values to the value immediately before addition of each gene compound as 1 are shown in Table 16. The data in Table 16 show mean±standard deviation at n=3-4 (n is the number of samples).

C3H10T1/2 cells = experiment: Adipocyte differentiation suppressive action; format: cell-based; details: for cell number (number of nucleus/visual field) / lipid droplet area (lipid droplet stained area/cell number): DM, 9 days
Protocol: C3H10T1/2 cells (Dainippon Pharmaceutical Co., Ltd.) were cultured in a growth medium until confluence. 1 μM dexamethasone, 0.5 mM 3-isobutyl-1-methylxanthine and 5 μg/mL insulin were added to the medium, and the cells were cultured for 3 days. The medium was exchanged with a growth medium added with 4 μg/mL insulin and the cells were cultured for 3 more days and cultured in a growth medium for 3 days. When the compound was added, it was added for 9 days after reaching confluence and the cells were cultured. The cells were fixed with 3.7% formalin, lipid droplet was stained with 100 nM BODIPY 493/503 (Molecular Probes), nucleus was stained with 2 μM Hoechst33258 (Acros Organics), and analyzed by IN Cell analyzer (GE Healthcare). The data of Table 15 show mean±standard deviation at n=4 (n is the number of samples).

myogenin = experiment: Muscle-related gene expression in myoblast: myogenin; format: cell-based, Mouse; details: for Myogenin/36B4 expression level: 10 μM, 1 day, relative value
Female KKA^y mice = experiment: Improvement of insulin resistance in KKA^y mouse (plasma glucose AUC after insulin); format: in vivo; details: 4 weeks, insulin 0.5 U/kg i.p.
Protocol: Female KKA^y mice (12-week-old, CLEA Japan, Inc.) were bred while allowing free ingestion of both feed and water. The mice were bred for acclimation with powder CE-2 (CLEA Japan, Inc.) from 2 weeks before administration of the compound. The body weight and plasma markers were measured and, at 14 weeks of age, they were divided into 4 groups (6 per group) such that the measured values were uniform. The compound of Reference Example 1 was administered for 4 weeks in a mixed feed (0.01-0.09 mg/kg/day). After fasting overnight, insulin was intraperitoneally administered at 0.5 U/kg and, after 30, 60 and 120 min, blood samples were collected.

MyoD = experiment: Muscle-related gene expression in myoblast: MyoD; format: cell-based, Mouse; details: for MyoD/36B4 expression level: 10 μM, 1 day, relative value
EGLN3 = experiment: Muscle-related gene expression in myoblast: EGLN3; format: cell-based, Mouse; details: for EGLN3/36B4 expression level: 10 μM, 1 day, relative value
Protocol: • (1) In the same manner as in Example 1, C2C12 cell was cultured, and the compound of Reference Example 1 (10 nM) was added. A DMSO solution was added to the control group instead of the test compound. • (2) One day after the addition of the test compound or DMSO solution, total RNA was extracted using Rneasy 96 kit (Qiagen) and according to the manual of the kit, and cDNA was prepared using TaqMan reverse transcription reagent (Applied Biosystems). • (3) The expression level of MyoD (Mm00440387_m1, TaqMan Gene Expression Assays, Applied Biosystems), myogenin (Mm00446194_m1, TaqMan Gene Expression Assays, Applied Biosystems), creatine kinase (CKM) (Mm00432556_m1, TaqMan Gene Expression Assays, Applied Biosystems), EGLN3 (Mm00472200_m1, TaqMan Gene Expression Assays, Applied Biosystems) was measured by quantify PCR using ABI PRISM 7900 (Applied Biosystems). The expression level of each gene, shown in Table 3, Table 4, Table 5 and Table 6, was obtained by amendment against the expression level of 36B4 (Takeda Pharmaceutical Company Limited), and is shown in a relative value to the value of the control group cultured in a growth medium as 1.
The data of Table 3, Table 4, Table 5 and Table 6 show mean±standard deviation at n=6 (n is the number of samples).
The following depicts the sequences of genes used for the amendment. • 36B4-F: 5′-TGCCACACTCCATCATCAATG-3′ (SEQ ID NO: 1) • 36B4-R: 5′-CGCAAATGCAGATGGATCAG-3′ (SEQ ID NO: 2) • 5′-VIC-ACCTTCCCACTTACTGAAAAGGTCAAGGCC-TAMRA-3′ (SEQ ID NO: 3)

[1] = system: Normal male C57BL/6J mice; experiment: Data of normal mouse; format: in vivo
Protocol: Normal male C57BL/6J mice (CLEA Japan, Inc.) were bred allowing free ingestion of both feed and water. The mice were bred for acclimation for 1 week from 16-week-old. The body weight was measured, the mice were divided into 2 groups (5 per group) to be uniform, and the compound of Reference Example 1 (0.03 mg/kg) was orally administered to one group for 2 weeks. On the last day, the body weight, and plasma levels of total cholesterol, glucose, lactic acid, GOT, GPT and neutral lipid were measured. The data of Table 19 show mean±standard deviation at n=5 (n is the number of samples).

[2] = C2C12 cells cultured in a differentiation medium
[3] = normal mice, 0.03 mg/kg oral, 2 weeks

Cc1ncccc1Oc1sc(C(N)=O)c2c1-c1c(cnn1C)CC2 [Ref. Ex. 1, 1-methyl-8-[(2-methylpyridin-3-yl)oxy]-4,5-dihydro-1H-thieno[3,4-g]indazole-6-carboxamide]
PPARγ expression level (amended by 36B4) (PPARγ; 10 μm [sic] of compound, 6 days after addition, value immediately before addition = 1): 4.5 ± 0.9
expression level of PPARγ (in words) (PPARγ; C3H10T1/2 cell): decreased
cell number (number of nucleus/visual field) (C3H10T1/2 cells; compound 0.1 nM): 303 ± 28
lipid droplet area (lipid droplet stained area/cell number) (C3H10T1/2 cells; compound 0.1 nM): 9625
cell number (number of nucleus/visual field) (C3H10T1/2 cells; compound 1 nM): 295 ± 15
lipid droplet area (lipid droplet stained area/cell number) (C3H10T1/2 cells; compound 1 nM): 5703
cell number (number of nucleus/visual field) (C3H10T1/2 cells; compound 10 nM): 318 ± 9
lipid droplet area (lipid droplet stained area/cell number) (C3H10T1/2 cells; compound 10 nM): 2010
cell number (in words) (C3H10T1/2 cells; adipocyte differentiation): without affecting
intracellular lipid accumulation (in words) (C3H10T1/2 cells; adipocyte differentiation): decreased
expression of myogenin (in words) (myogenin; [2]): promoted
Myogenin/36B4 expression level (myogenin; DM (differentiation medium)): 3.81 ± 0.55
Myogenin/36B4 expression level (myogenin; GM (growth medium)): 0.03 ± 0.00
glucose AUC0-120 min (Female KKA^y mice; 0.01 mg/kg/day in mixed feed): 241.0 mg·h/dL
glucose AUC0-120 min (mg h/dL) (Female KKA^y mice; 0.03 mg/kg/day in mixed feed): 184.7* mg h/dL
glucose AUC0-120 min (mg h/dL) (Female KKA^y mice; 0.09 mg/kg/day in mixed feed): 182.5* mg h/dL
expression of MyoD (in words) (MyoD; [2]): increased
MyoD/36B4 expression level (MyoD; DM (differentiation medium)): 1.59 ± 0.20
MyoD/36B4 expression level (MyoD; GM (growth medium)): 1.26 ± 0.10
expression of EGLN3 (in words) (EGLN3; [2]): increased
EGLN3/36B4 expression level (EGLN3; DM (differentiation medium)): 2.07 ± 1.15
EGLN3/36B4 expression level (EGLN3; GM (growth medium)): 2.12 ± 0.15
normal body weight and plasma markers (in words) ([1]; normal C57BL/6J mice): does not affect
body weight (g) on last day [1, 3]: 28.03 ± 0.84 g
plasma GOT (U/L) [1, 3]: 63.4 ± 31.1 U/L
plasma GPT (U/L) [1, 3]: 29.4 ± 3.9 U/L
plasma glucose [1, 3]: 155.5 ± 11.9 mg/dL
plasma lactic acid [1, 3]: 49.3 ± 16.5 mg/dL
plasma neutral fats [1, 3]: 78.0 ± 31.0 mg/dL
plasma total cholesterol [1, 3]: 81.1 ± 10.2 mg/dL
total amount of ingestion (g/2 weeks) [1, 3]: 55.6 ± 2.5 g/2 weeks
